The test relates to L1210 leukemia ip in BDF1 mice, survival T/C. Description: NCI In Vivo Anticancer Drug Screen. Data for tumor model L1210 Leukemia (intraperitoneal) in B6D2F1 (BDF1) mice. To be noted: endpoint: mean survival time, higher = longer survival. The method in brief: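 Antitumor effect is assessed in tumor-bearing animals. Survival in the compound arm is compared with a vehicle-dosed control arm and expressed as their quotient.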

Where [1] appears, read: dose: 100.0 mg/kg/injection, schedule: Q04DX003 (ip), vehicle: Klucel (hydroxypropylcellulose) (HPC).
The mark [2] stands for this setting: dose: 200.0 mg/kg/injection, schedule: Q04DX003 (ip), vehicle: Klucel (hydroxypropylcellulose) (HPC).
[3] abbreviates: dose: 100.0 mg/kg/injection, schedule: Q01DX009 (ip), vehicle: Klucel (hydroxypropylcellulose) (HPC).
The mark [4] stands for this setting: dose: 200.0 mg/kg/injection, schedule: Q01DX009 (ip), vehicle: Klucel (hydroxypropylcellulose) (HPC).

Values joined by “and” are separate entries in the source; they are usually repeats but may differ in a detail not shown here. Equal entries are not always repeated. Toxic doses and inconclusive results are not listed.

As for `CCOC(=O)Cc1ccc(N)cc1`, the T/C is, setting by setting: (dose: 100.0 mg/kg/injection, schedule: Q01DX001 (ip), vehicle: Klucel (hydroxypropylcellulose) (HPC)) 104 % of control; (dose: 200.0 mg/kg/injection, schedule: Q01DX001 (ip), vehicle: Klucel (hydroxypropylcellulose) (HPC)) 101 % of control.

As for `ClC1=C(Cl)C(Cl)(Cl)C(Cl)=C1Cl`, the T/C was 103 % of control (dose: 0.25 mg/kg/injection, schedule: Q04DX002 (ip), vehicle: Klucel (hydroxypropylcellulose) (HPC)); 107 % of control (dose: 0.5 mg/kg/injection, schedule: Q04DX002 (ip), vehicle: Klucel (hydroxypropylcellulose) (HPC)); 88 % of control (dose: 1.0 mg/kg/injection, schedule: Q04DX002 (ip), vehicle: Klucel (hydroxypropylcellulose) (HPC)).

Turning to `CC(=O)C1CCC2C3CC=C4CC(O)CCC4(C)C3CCC12C` (stereo not drawn), the T/C is, setting by setting: (dose: 100.0 mg/kg/injection, schedule: Q04DX002 (ip), vehicle: Klucel (hydroxypropylcellulose) (HPC)) 91 % of control; under setting [1], 89 % of control; (dose: 200.0 mg/kg/injection, schedule: Q04DX002 (ip), vehicle: Klucel (hydroxypropylcellulose) (HPC)) 100 % of control; under setting [2], 92 % of control; (dose: 400.0 mg/kg/injection, schedule: Q04DX002 (ip), vehicle: Klucel (hydroxypropylcellulose) (HPC)) 91 % of control.

Regarding `COc1ccc(CCN2CSC(=S)N(CCc3ccc(OC)c(OC)c3)C2)cc1OC`, the T/C under setting [3] was 97 % of control; the T/C under setting [1] is 97 % of control; the T/C under setting [4] was 100 % of control; the T/C under setting [2] was 97 % of control; the T/C (dose: 400.0 mg/kg/injection, schedule: Q01DX009 (ip), vehicle: Klucel (hydroxypropylcellulose) (HPC)) is 94 % of control; the T/C (dose: 400.0 mg/kg/injection, schedule: Q04DX003 (ip), vehicle: Klucel (hydroxypropylcellulose) (HPC)) is 95 % of control.

Take `O=C1CCN(CCCN2CCC(=O)N(Cc3ccccc3)C2=S)C(=S)N1Cc1ccccc1`: the T/C is, setting by setting: (dose: 100.0 mg/kg/injection, schedule: Q04DX002 (ip), vehicle: DMSO) 87 % of control; (dose: 200.0 mg/kg/injection, schedule: Q04DX002 (ip), vehicle: DMSO) 104 % of control; (dose: 400.0 mg/kg/injection, schedule: Q04DX002 (ip), vehicle: DMSO) 101 % of control.

As for `C(=N\Nc1ccc2ccccc2n1)/c1ccccn1`, the T/C by setting is: (dose: 9.5 mg/kg/injection, schedule: Q01DX001 (ip), vehicle: other) 94 % of control; (dose: 19.0 mg/kg/injection, schedule: Q01DX001 (ip), vehicle: other) 103 % of control; (dose: 38.0 mg/kg/injection, schedule: Q01DX001 (ip), vehicle: other) 94 % of control; (dose: 75.0 mg/kg/injection, schedule: Q01DX001 (ip), vehicle: other) 108 % of control.

Consider `O=c1c(N=Nc2ccc(Br)cc2)c(O)n(-c2ccccc2Cl)c(=S)n1-c1ccccc1`, for which the T/C was 90 % of control (dose: 75.0 mg/kg/injection, schedule: Q01DX001 (ip), vehicle: Klucel (hydroxypropylcellulose) (HPC)) and 101 % of control (dose: 150.0 mg/kg/injection, schedule: Q01DX001 (ip), vehicle: Klucel (hydroxypropylcellulose) (HPC)).

In the case of `S=C(NCc1ccco1)Nc1cccc2ccccc12`, the T/C (dose: 100.0 mg/kg/injection, schedule: Q04DX002 (ip), vehicle: gum acacia) is 101 % of control; the T/C (dose: 200.0 mg/kg/injection, schedule: Q04DX002 (ip), vehicle: gum acacia) was 88 % of control; the T/C (dose: 400.0 mg/kg/injection, schedule: Q04DX002 (ip), vehicle: gum acacia) was 98 % of control.

On to `CC(O)c1ccc2c(c1)Nc1ccccc1S2` (stereo not drawn), for which the T/C (dose: 100.0 mg/kg/injection, schedule: Q04DX002 (ip), vehicle: saline with Tween-80) is 91 % of control; the T/C (dose: 200.0 mg/kg/injection, schedule: Q04DX002 (ip), vehicle: saline with Tween-80) is 105 % of control; the T/C (dose: 400.0 mg/kg/injection, schedule: Q04DX002 (ip), vehicle: saline with Tween-80) was 91 % of control.

In the case of `O=S(=O)(N=C1C=CC(=NS(=O)(=O)c2ccccc2)C=C1)c1ccccc1`, the T/C runs as follows: (dose: 100.0 mg/kg/injection, schedule: Q01DX009 (ip), vehicle: gum acacia) 98 % of control; (dose: 100.0 mg/kg/injection, schedule: Q04DX003 (ip), vehicle: gum acacia) 98 % of control; (dose: 200.0 mg/kg/injection, schedule: Q01DX009 (ip), vehicle: gum acacia) 97 % of control; (dose: 200.0 mg/kg/injection, schedule: Q04DX003 (ip), vehicle: gum acacia) 98 % of control; (dose: 400.0 mg/kg/injection, schedule: Q04DX003 (ip), vehicle: gum acacia) 95 % of control.

On to `Nc1nc(SCc2ccccc2)c2[nH]cnc2n1`, for which the T/C is 124 % of control (dose: 4.0 mg/kg/injection, schedule: Q01DX Z (ip), vehicle: carboxymethylcellulose (CMC)); 92 % of control (dose: 5.0 mg/kg/injection, schedule: Q03DX Z (ip), vehicle: carboxymethylcellulose (CMC)); 100 % of control (dose: 8.0 mg/kg/injection, schedule: Q01DX010 (ip), vehicle: saline); 158 % of control (dose: 8.0 mg/kg/injection, schedule: Q01DX Z (oral), vehicle: carboxymethylcellulose (CMC)); 152 % of control (dose: 10.0 mg/kg/injection, schedule: Q01DX Z (ip), vehicle: carboxymethylcellulose (CMC)); 116 % of control (dose: 10.0 mg/kg/injection, schedule: Q03DX Z (ip), vehicle: carboxymethylcellulose (CMC)). Besides, the T/C by setting is: (dose: 15.0 mg/kg/injection, schedule: Q03DX Z (ip), vehicle: carboxymethylcellulose (CMC)) 124 % of control; (dose: 20.0 mg/kg/injection, schedule: Q01DX001 (ip), vehicle: carboxymethylcellulose (CMC)) 151 % of control; (dose: 20.0 mg/kg/injection, schedule: Q03DX Z (ip), vehicle: carboxymethylcellulose (CMC)) 216 % of control; (dose: 41.0 mg/kg/injection, schedule: Q01DX001 (ip), vehicle: carboxymethylcellulose (CMC)) 163 % of control; (dose: 41.0 mg/kg/injection, schedule: Q03DX Z (ip), vehicle: carboxymethylcellulose (CMC)) 158 % of control; (dose: 41.0 mg/kg/injection, schedule: Q07DX Z (ip), vehicle: carboxymethylcellulose (CMC)) 165 % of control. The T/C (dose: 60.0 mg/kg/injection, schedule: Q01DX Z (ip), vehicle: carboxymethylcellulose (CMC)) was 118 % of control; the T/C (dose: 62.5 mg/kg/injection, schedule: Q01DX010 (ip), vehicle: saline) is 108 % of control; the T/C (dose: 64.0 mg/kg/injection, schedule: Q01DX Z (oral), vehicle: carboxymethylcellulose (CMC)) is 124 % of control; the T/C (dose: 82.0 mg/kg/injection, schedule: Q01DX001 (ip), vehicle: carboxymethylcellulose (CMC)) was 157 % of control; the T/C (dose: 82.0 mg/kg/injection, schedule: Q07DX Z (ip), vehicle: carboxymethylcellulose (CMC)) was 168 % of control; the T/C (dose: 86.0 mg/kg/injection, schedule: Q01DX001 (ip), vehicle: carboxymethylcellulose (CMC)) is 163 % of control. In addition, the T/C reads like this: (dose: 125.0 mg/kg/injection, schedule: Q01DX010 (ip), vehicle: saline) 103 % of control; (dose: 129.0 mg/kg/injection, schedule: Q01DX001 (ip), vehicle: carboxymethylcellulose (CMC)) 160 % of control; (dose: 195.0 mg/kg/injection, schedule: Q01DX001 (ip), vehicle: carboxymethylcellulose (CMC)) 168 % of control and 181 % of control; (dose: 292.0 mg/kg/injection, schedule: Q03DX Z (ip), vehicle: carboxymethylcellulose (CMC)) 101 % of control; (dose: 292.0 mg/kg/injection, schedule: Q07DX Z (ip), vehicle: carboxymethylcellulose (CMC)) 114 % of control.

For the compound `CC(C)(C)NC(=O)Oc1cccnc1`, the T/C is 93 % of control under setting [3] and 102 % of control under setting [4].

With `c1ccc(CC[P+](c2ccccc2)(c2ccccc2)c2ccccc2)cc1`, the T/C is, setting by setting: (dose: 0.78 mg/kg/injection, schedule: Q01DX009 (ip), vehicle: Klucel (hydroxypropylcellulose) (HPC)) 97 % of control; (dose: 1.56 mg/kg/injection, schedule: Q01DX009 (ip), vehicle: Klucel (hydroxypropylcellulose) (HPC)) 96 % of control; (dose: 3.13 mg/kg/injection, schedule: Q01DX009 (ip), vehicle: Klucel (hydroxypropylcellulose) (HPC)) 92 % of control; (dose: 12.5 mg/kg/injection, schedule: Q04DX003 (ip), vehicle: Klucel (hydroxypropylcellulose) (HPC)) 101 % of control; (dose: 25.0 mg/kg/injection, schedule: Q04DX003 (ip), vehicle: Klucel (hydroxypropylcellulose) (HPC)) 103 % of control.

For the compound `CCCCCCC(C)OCC(=O)c1ccccc1` (stereo not drawn), the T/C by setting is: (dose: 100.0 mg/kg/injection, schedule: Q04DX002 (ip), vehicle: saline) 94 % of control; (dose: 200.0 mg/kg/injection, schedule: Q04DX002 (ip), vehicle: saline) 91 % of control.
